Laboratory results as given in patent US10669240B2, “5-substituted indazole-3-carboxamides and preparation and use thereof” (Samumed, LLC, priority 2014, dated 2020).

target: DYRK1A (Homo sapiens (Human), UniProt Q13627); assay: DYRK1A activity Tau assay: pSer396 Tau in SH-SY5Y cells by ELISA / western blot; assay type: cell-based; conditions: overnight (16-18 h) exposure

EC50 | Compound
372 nM | O=C(Nc1ccc(C(F)(F)F)cn1)c1n[nH]c2ccc(-c3cccnc3)cc12 [Compound 40, 5-(Pyridin-3-yl)-N-(5-(trifluoromethyl)pyridin-2-yl)-1H-indazole-3-carboxamide]
54 nM | CN(C)Cc1ccc(NC(=O)c2n[nH]c3ccc(-c4cccc(F)c4F)cc23)cc1 [Compound 1325, 5-(2,3-Difluorophenyl)-N-(4-((dimethylamino)methyl)phenyl)-1H-indazole-3-carboxamide]
32 nM | O=C(NC1CCCC1)c1n[nH]c2ccc(-c3cncc(F)c3)cc12 [Compound 1280, N-Cyclopentyl-5-(5-fluoropyridin-3-yl)-1H-indazole-3-carboxamide]
> 10000 nM | O=C(NC1CCCCC1)c1n[nH]c2ccc(-c3cccc(F)c3)cc12 [Compound 12, N-Cyclohexyl-5-(3-fluorophenyl)-1H-indazole-3-carboxamide]
17 nM | O=C(NC1CCC(F)(F)CC1)c1n[nH]c2ccc(-c3cncc(F)c3)cc12 [Compound 1284, N-(4,4-Difluorocyclohexyl)-5-(5-fluoropyridin-3-yl)-1H-indazole-3-carboxamide]
10 nM | O=C(Nc1ccc(C(F)(F)F)cn1)c1n[nH]c2ccc(-c3cncc(CN4CCCCC4)c3)cc12 [Compound 61, 5-(5-(Piperidin-1-ylmethyl)pyridin-3-yl)-N-(5-(trifluoromethyl)pyridin-2-yl)-1H-indazole-3-carboxamide]
233 nM | O=C(NC1(c2ccccc2)CC1)c1n[nH]c2ccc(-c3cncc(CN4CCCC4)c3)cc12 [Compound 34, N-(1-Phenylcyclopropyl)-5-(5-(pyrrolidin-1-ylmethyl)pyridin-3-yl)-1H-indazole-3-carboxamide]
118 nM | O=C(NCc1cc(F)cc(F)c1)c1n[nH]c2ccc(-c3cc(F)cc(CN4CCCCC4)c3)cc12 [Compound 31, N-(3,5-Difluorobenzyl)-5-(3-fluoro-5-(piperidin-1-ylmethyl)phenyl)-1H-indazole-3-carboxamide]
135 nM | CN(C)CCCNC(=O)c1n[nH]c2ccc(-c3cccc(F)c3F)cc12 [Compound 1260, 5-(2,3-Difluorophenyl)-N-(3-(dimethylamino)propyl)-1H-indazole-3-carboxamide]
22 nM | O=C(NC1CCCCC1)c1n[nH]c2ccc(-c3cncc(F)c3)cc12 [Compound 1282, N-Cyclohexyl-5-(5-fluoropyridin-3-yl)-1H-indazole-3-carboxamide]
8 nM | CN1CCC(NC(=O)c2n[nH]c3ccc(-c4cncc(CN5CCC(F)(F)C5)c4)cc23)CC1 [Compound 10, 5-(5-((3,3-Difluoropyrrolidin-1-yl)methyl)pyridin-3-yl)-N-(1-methylpiperidin-4-yl)-1H-indazole-3-carboxamide]
35 nM | CC(C)CNC(=O)c1n[nH]c2ccc(-c3cncc(Cl)c3)cc12 [Compound 1255, 5-(5-Chloropyridin-3-yl)-N-isobutyl-1H-indazole-3-carboxamide]
7 nM | CCN(CC)Cc1cncc(-c2ccc3[nH]nc(C(=O)NC4CC4)c3c2)c1 [Compound 1270, N-Cyclopropyl-5-(5-((diethylamino)methyl)pyridin-3-yl)-1H-indazole-3-carboxamide]
374 nM | CC(C)(C)NC(=O)c1n[nH]c2ccc(-c3cncc(CN4CCCC4)c3)cc12 [Compound 1200, N-(tert-Butyl)-5-(5-(pyrrolidin-1-ylmethyl)pyridin-3-yl)-1H-indazole-3-carboxamide]
27 nM | O=C(NC1CCN(CCF)CC1)c1n[nH]c2ccc(-c3cncc(Cl)c3)cc12 [Compound 1296, 5-(5-Chloropyridin-3-yl)-N-(1-(2-fluoroethyl)piperidin-4-yl)-1H-indazole-3-carboxamide]
9 nM | O=C(NC1CCCC1)c1n[nH]c2ccc(-c3cccnc3)cc12 [Compound 179, N-Cyclopentyl-5-(pyridin-3-yl)-1H-indazole-3-carboxamide]
62 nM | CC(C)CNC(=O)c1n[nH]c2ccc(-c3ccc(F)nc3)cc12 [Compound 1335, 5-(6-Fluoropyridin-3-yl)-N-isobutyl-1H-indazole-3-carboxamide]
491 nM | CN(C)Cc1cncc(-c2ccc3[nH]nc(C(=O)NC(C)(C)C)c3c2)c1 [Compound 1198, N-(tert-Butyl)-5-(5-((dimethylamino)methyl)pyridin-3-yl)-1H-indazole-3-carboxamide]
11 nM | O=C(NC1CCN(CC2CCC2)CC1)c1n[nH]c2ccc(-c3cccnc3)cc12 [Compound 1314, N-(1-(Cyclobutylmethyl)piperidin-4-yl)-5-(pyridin-3-yl)-1H-indazole-3-carboxamide]
419 nM | CC(C)(C)NC(=O)c1n[nH]c2ccc(-c3cncc(N4CCCC4)c3)cc12 [Compound 1214, N-(tert-Butyl)-5-(5-(pyrrolidin-1-yl)pyridin-3-yl)-1H-indazole-3-carboxamide]
> 10000 nM | CN1CCC(NC(=O)c2n[nH]c3ccc(-c4ccc(C(F)(F)F)nc4)cc23)CC1 [Compound 94, N-(1-Methylpiperidin-4-yl)-5-(6-(trifluoromethyl)pyridin-3-yl)-1H-indazole-3-carboxamide]
6 nM | O=C(NC1CCN(CC(F)F)CC1)c1n[nH]c2ccc(-c3cccnc3)cc12 [Compound 1181, N-(1-(2,2-Difluoroethyl)piperidin-4-yl)-5-(pyridin-3-yl)-1H-indazole-3-carboxamide]
148 nM | CC(C)NC(=O)c1n[nH]c2ccc(-c3cncc4ccccc34)cc12 [Compound 1249, N-Isopropyl-5-(isoquinolin-4-yl)-1H-indazole-3-carboxamide]
47 nM | O=C(NC1CCCC1)c1n[nH]c2ccc(-c3cncc(N4CCCC4)c3)cc12 [Compound 181, N-Cyclopentyl-5-(5-(pyrrolidin-1-yl)pyridin-3-yl)-1H-indazole-3-carboxamide]
53 nM | CC(C)NC(=O)c1n[nH]c2ccc(-c3cncc(Cl)c3)cc12 [Compound 1247, 5-(5-Chloropyridin-3-yl)-N-isopropyl-1H-indazole-3-carboxamide]
44 nM | CC(C)CN1CCC(NC(=O)c2n[nH]c3ccc(-c4cncc(F)c4)cc23)CC1 [Compound 1306, 5-(5-Fluoropyridin-3-yl)-N-(1-isobutylpiperidin-4-yl)-1H-indazole-3-carboxamide]
158 nM | O=C(NC1(c2ccccc2)CC1)c1n[nH]c2ccc(-c3cncc(CN4CCCCC4)c3)cc12 [Compound 36, N-(1-Phenylcyclopropyl)-5-(5-(piperidin-1-ylmethyl)pyridin-3-yl)-1H-indazole-3-carboxamide]
454 nM | CN1CCC(NC(=O)c2n[nH]c3ccc(-c4ccc(F)cc4F)cc23)CC1 [Compound 18, 5-(2,4-Difluorophenyl)-N-(1-methylpiperidin-4-yl)-1H-indazole-3-carboxamide]
340 nM | CCN1CCC(NC(=O)c2n[nH]c3ccc(-c4cnc5ccc(F)cc5c4)cc23)CC1 [Compound 1295, N-(1-Ethylpiperidin-4-yl)-5-(6-fluoroquinolin-3-yl)-1H-indazole-3-carboxamide]
1800 nM | CCN1CCC(NC(=O)c2n[nH]c3ccc(-c4cccc(OC)c4F)cc23)CC1 [Compound 1338, N-(1-Ethylpiperidin-4-yl)-5-(2-fluoro-3-methoxyphenyl)-1H-indazole-3-carboxamide]
